Holding throughout (format): cell-based
Data set [1] concerns LPS-activated human microglia. Put plainly: LPS-induced TNF-alpha gene transcription in human microglia (qRT-PCR). The note with it: LPS 1 μg/ml, 24 hours; for LPS-induced gene transcription of TNF-alpha: 0.15 μM, 0.5 μM and 1.5 μM, FIG. 3; for Anti-inflammatory effect on TNF-alpha of LPS-activated human microglia: summary of Example 4. The procedure:
To analyse whether polysialic acid might interfere with a pro-inflammatory phenotype of human microglia, cultured human microglia were activated with lipopolysaccharides (LPS) and the effect of the distinct sialic acid forms including fractions of oligosialic and polysialic acid on the gene transcription of the pro-inflammatory cytokine tumor necrosis factor-alpha induced by the bacterial toxin LPS was determined. A human microglial line derived from induced pluripotent stem cells as described in WO 2010/125110 was used to study the effect of sialic acid forms with different chain length. Human microglial cells were cultured on 5 μg/ml poly-L-lysin (PLL, Sigma)-coated dishes in N2-medium containing DMEM/F12 culture medium (Gibco) supplemented with 1% N2 (Invitrogen), 0.48 mM L-glutamine (Gibco) and optionally 100 μg/ml penicillin/streptomycin (Gibco). Cells were cultured with high density and splitted 1:2 when required. The human induced pluripotent stem cell derived microglia line was treated with lipopolysaccharides (LPS, 1 μg/ml, Invivogen) and sialic acid forms with different chain length for 24 hours. Gene transcripts for tumor necrosis factor-α (TNF-alpha) were determined by quantitative RT-PCR and normalized to GAPDH. In detail, RNA isolation was performed using RNeasy Mini Kit (Qiagen) and transcription with the SuperScript First-Strand Synthesis System (Invitrogen). Quantitative RT-PCR with specific oligonucleotides (GAPDH: […] (SEQ ID NO: 1) and […] (SEQ ID NO: 2); TNFα: […] (SEQ ID NO: 3) and […] (SEQ ID NO: 4)) was performed using SYBR green PCR Master Mix with the Mastercycler epgradients S (Eppendorf). Results were normalized to GAPDH. Quantification using the delta-CT method was carried out.
For orientation: Quantitative PCR measures a nucleic acid by following its amplification.

For data set [2], the system named is human microglial line derived from induced pluripotent stem cells (expressing Siglec-11). Nature of the data set: MTT cell viability of human microglia treated with sialic acid forms. The note with it: for metabolic activity of the microglial cells (MTT, normalized to cell number): 24 hours treatment, 0.15 μM, 0.5 μM and 1.5 μM, FIG. 2B; for Intact viability of human microglia: summary of Example 3, MTT, 24 hours. As for the experimental part: A human microglial line derived from induced pluripotent stem cells as described in WO 2010/125110 was used to study the effect of sialic acid forms with different chain length. Human microglial cells were cultured on 5 μg/ml poly-L-lysin (PLL, Sigma)-coated dishes in N2-medium containing DMEM/F12 culture medium (Gibco) supplemented with 1% N2 (Invitrogen), 0.48 mM L-glutamine (Gibco) and optionally 100 μg/ml penicillin/streptomycin (Gibco). Cells were cultured with high density and splitted 1:2 when required.
The effect of different length and fractions of oligosialic acids and polysialic acids on the human microglial lines were analyzed by determination of cell viability normalized to the cell number and after treatment with monomeric sialic acid (SA, molecular weight of 0.3 kDa, Nacalai Tesque ING, Japan) and sialic acids consisting of 3 monomers (Tri-SA; molecular weight of 0.9 kDa, Nacalai Tesque ING, Japan) and sialic acids consisting of 6 monomers (Hexa-SA; molecular weight of 1.9 kDa, Nacalai Tesque ING, Japan), PSA with a number of sialic acid monomers between 14 and 26 (PSA-20; low molecular weight of PSA between 4.3 and 8 kDa for >90% of the substance) and PSA with a length between 46 and 110 of sialic acid monomers (PSA-60; medium molecular weight of PSA between 14.2 and 34 kDa for >90% of the substance).
The microglial cells were cultured in medium as described above and treated in culture with the different sialic acid forms.
Cell viability was determined by the MTT (3-(4,5-Dimethylthiazol-2-yl)-2,5-diphenyltetrazolium bromide, Millipore) assay after 24 hours treatment with distinct sialic acid forms with different chain length and normalized to the cell number. The light absorbance of the purple formazan in living cells was determined by a spectrophotometer at a wavelength of 570 nm (Perkin Elmer, Envision Multiplate Reader).

Data set [3] relates to human microglial cells stimulated with fibrillary amyloid-β1-42. Put plainly: Amyloid-β1-42 induced superoxide release of human microglia (DHE). The note with it: repeat, FIG. 4B; PSA-20 1.5 μM; Trolox 40 μM; SOD1 20 μg/ml; Aβ 10 μM. As for the experimental part:
The human microglial cell line was treated with human Alzheimer's disease associated fibrillary amyloid-beta peptide (Aβ) to mimic inflammatory signalling of Alzheimer's disease brain tissue. To obtain fibrillary components of Aβ, the synthetic amyloid-beta peptide (amyloid-beta 1-42, Bachem/Brucker, 10 μM) was preincubated at 37° C. for at least three days. The human microglial cells were treated with the different concentrations of 0.15 μM, 0.5 μM, or 1.5 μM of low molecular weight polysialic acid (PSA-20) for 60 minutes followed by incubation for 15 minutes with fibrillary Aβ. Then, 30 μM dihydroethidium (DHE) was added and incubated at 37° C. for 15 minutes for measurement of superoxide anion radical production. Cells were fixed with 4% paraformaldehyde plus 0.25% glutaraldehyde and analyzed by confocal microscopy. For the quantification of DHE staining intensity six pictures of each experiment were obtained and analyzed by ImageJ software (NIH). The background was subtracted and the mean values of the staining intensities were compared. Cells were fixed and the intensity of DHE was quantified by confocal microscopy.
To confirm the specificity of the DHE measurement, the determination of the effect of PSA-20 on superoxide production in human microglial cells was repeated. As a control the radical scavenger Trolox, a water-soluble vitamin E analogue, was added to the system. Furthermore, as additional control superoxide dismutase-1 (SOD1) was added into the medium. Superoxide should no longer be detectable by the DHE dye after successful transformation of superoxide by SOD1.
Human microglial cells were cultured alone and production of reactive oxygen species was analyzed after treatment with the Alzheimer's disease plaques associated fibrillary amyloid-β1-42. To measure the relative production of superoxide by the microglial cells, cells were plated in 4-chamber culture dishes. After 24 hours human microglial cells were treated with 1.5 μM of low molecular weight polysialic acid (PSA-20) for 60 minutes followed by incubation for 15 minutes with 10 μM fibrillary amyloid-β1-42. Control dishes were treated with either 1.5 μM PSA-20 and 40 μM Trolox or 1.5 μM PSA-20 and 20 μg/ml superoxide dismutase-1 (SOD1, Serva). Then, cells were washed 2-times with Krebs-HEPES-buffer and afterwards incubated for 15 minutes with 30 μM DHE solution (diluted in Krebs-HEPES-buffer). Finally cells were washed 2-times with Krebs-HEPES-buffer and fixed for 15 minutes with 0.25% glutaraldehyde and 4% PFA. In total, six images were randomly collected per experimental group by confocal laser scanning microscopy (Fluoview 1000, Olympus). All cells of the collected images were analyzed by Image J software (NIH).

The next data set has as its system human microglial cells. Nature of the data set: Phagocytosis associated oxidative burst: neural debris triggered superoxide release (DHE). The note with it: control experiment; 40 μM Trolox or 20 μg/ml SOD1. The procedure: To measure the relative production of superoxide by the microglial cells, human microglial cells were plated in 4-chamber culture dishes. After 24 hours cells were treated with 5 mg/ml neural debris for 15 minutes with or without 1 hour PSA-20 pre-incubation at concentrations of 0.15 μM, 0.5 μM or 1.5 μM. Then, cells were washed 2-times with Krebs-HEPES-buffer. To detect the release of superoxide the cells were afterwards incubated for 15 minutes with 30 μM superoxide-sensitive fluorescent dye dihydroethidium (DHE) solution diluted in Krebs-HEPES-buffer. Finally cells were washed 2-times with Krebs-HEPES-buffer and fixed for 15 minutes with 0.25% glutaraldehyde and 4% PFA. In total, six images were randomly collected per experimental group by confocal laser scanning microscopy (Fluoview 1000, Olympus). All cells of the collected images were analyzed by Image J software (NIH).
To confirm the effect, Trolox as scavenger of superoxide and superoxide dismutase-1 (SOD1) as modifier of superoxide were used in a control experiment as described above using 1.5 μM of PSA-20 but adding either 40 μM Trolox or 20 μg/ml (SOD1) into the medium. […] As can be taken from the FIG. 9C, the radical scavenger Trolox and the superoxide dismutase SOD1 neutralized the neural debris triggered superoxide release and as controls confirmed that DHE detected an extracellular production of superoxide.

In the case of `CC(=O)N[C@H]1[C@H]([C@H](O)[C@H](O)CO)OC(O)(C(=O)O)C[C@@H]1O` (stereo partly drawn) [SA, N-acetylneuraminic acid], in data set [1], the “LPS-induced gene transcription of TNF-alpha” value is recorded as “did not significantly change” and the “Anti-inflammatory effect on TNF-alpha of LPS-activated human microglia” value was “No”. In data set [2], the “metabolic activity of the microglial cells (MTT, normalized to cell number)” value is “did not affect the metabolic activity” and the “Intact viability of human microglia” value is “Yes”.
With `Cc1c(C)c2c(c(C)c1O)CCC(C)(C(=O)O)O2` (stereo not drawn) [Trolox, 6-hydroxy-2,5,7,8-tetramethylchroman-2-carboxylic acid, reference compound], the “amyloid-β1-42 induced stimulation of the superoxide production” value in data set [3] is reported as “scavenged”. Further, in the data set on human microglial cells, the “neural debris triggered superoxide release” value is reported as “neutralized”.
As for “SOD1: superoxide dismutase-1 (Serva), added to the medium as a control”, the “amyloid-β1-42 induced stimulation of the superoxide production” value in data set [3] was “neutralized”. Also, the “neural debris triggered superoxide release” value in the data set with human microglial cells was “neutralized”.
For the compound α2.8-polysialic acid [PSA-180], in data set [1], the “LPS-induced gene transcription of TNF-alpha” value is given as “no significant anti-inflammatory effect” and the “Anti-inflammatory effect on TNF-alpha of LPS-activated human microglia” value is on record as “No”. Besides, in data set [2], the “metabolic activity of the microglial cells (MTT, normalized to cell number)” value is given as “significantly reduced” and the “Intact viability of human microglia” value is listed as “No”.
